Measurements as given in PubChem BioAssay (NCI).
“And” between values parts separate entries of the source, which are not always exact repeats. Equal values may be shown once.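 Values below derive from 48-hour exposures of cells grown in 96-well plates, with endpoints linearly interpolated between the two concentrations bracketing the appropriate inhibition level. GI50 = concentration required for 50% inhibition of growth. At the TGI there is no net growth.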

How the values were obtained:
Test in all cases: inhibition of tumour cell growth, NCI panel, 48 h
[1] = system: 786-0 renal
[2] = system: A498 renal
[3] = system: A549 NSCLC
[4] = system: ACHN renal
[5] = system: BT-549 breast
[6] = system: CAKI-1 renal
[7] = system: CCRF-CEM leukemia
[8] = system: COLO 205 colon
[9] = system: DU-145 prostate
[10] = system: EKVX NSCLC
[11] = system: HCC-2998 colon
[12] = system: HCT-116 colon
[13] = system: HCT-15 colon
[14] = system: HL-60(TB) leukemia
[15] = system: HOP-62 NSCLC
[16] = system: HOP-92 NSCLC
[17] = system: HS 578T breast
[18] = system: HT29 colon
[19] = system: IGROV1 ovarian
[20] = system: K-562 leukemia
[21] = system: KM12 colon
[22] = system: LOX IMVI melanoma
[23] = system: M14 melanoma
[24] = system: MALME-3M melanoma
[25] = system: MCF7 breast
[26] = system: MDA-MB-231 breast
[27] = system: MDA-MB-435
[28] = system: MDA-N
[29] = system: MOLT-4 leukemia
[30] = system: NCI-H226 lung
[31] = system: NCI-H23 lung
[32] = system: NCI-H460 lung
[33] = system: NCI/ADR-RES ovarian
[34] = system: OVCAR-3 ovarian
[35] = system: OVCAR-4 ovarian
[36] = system: OVCAR-5 ovarian
[37] = system: OVCAR-8 ovarian
[38] = system: PC-3 prostate
[39] = system: RPMI-8226 leukemia
[40] = system: RXF 393 renal
[41] = system: SF-268 CNS
[42] = system: SF-295 CNS
[43] = system: SF-539 CNS
[44] = system: SK-MEL-2 melanoma
[45] = system: SK-MEL-28 melanoma
[46] = system: SK-MEL-5 melanoma
[47] = system: SK-OV-3 ovarian
[48] = system: SN12C renal
[49] = system: SNB-19 CNS
[50] = system: SNB-75 CNS
[51] = system: SR leukemia
[52] = system: SW-620 colon
[53] = system: T-47D breast
[54] = system: TK-10 renal
[55] = system: U251 CNS
[56] = system: UACC-257 melanoma
[57] = system: UACC-62 melanoma
[58] = system: UO-31 renal

## CCN(CC)CCNc1n[n+]([O-])c2cc([N+](=O)[O-])ccc2[n+]1[O-]
[1]
  GI50: 0.462 µM and 0.239 µM and 0.2 µM
  TGI: 3.1 µM and 1.63 µM and 1.68 µM
[2]
  TGI: 7.99 µM and 4.69 µM and 6.23 µM
[3]
  TGI: 3.11 µM and 3.08 µM and 2.48 µM
[4]
  GI50: 0.401 µM and 0.212 µM and 0.187 µM
  TGI: 3.93 µM and 2.06 µM and 1.92 µM
[5]
  TGI: 8.85 µM and 8.27 µM and 3.64 µM
[6]
  TGI: 1.79 µM and 2.7 µM and 1.97 µM
[7]
  GI50: 0.263 µM and 0.111 µM and 0.138 µM
  TGI: 1.1 µM and 0.841 µM and 0.999 µM
[8]
  TGI: 2.5 µM and 1.74 µM and 2.12 µM
[9]
  GI50: 1.2 µM and 0.63 µM and 0.578 µM
  TGI: 6.15 µM and 3.57 µM and 3.16 µM
[10]
  TGI: 8.38 µM and 5.78 µM and 5.3 µM
[11]
  GI50: 0.206 µM and 0.287 µM and 0.12 µM
  TGI: 1.53 µM and 2.01 µM and 0.57 µM
[12]
  TGI: 2.79 µM and 2.39 µM and 2.3 µM
[13]
  GI50: 0.87 µM and 0.287 µM and 0.273 µM
  TGI: 5.12 µM and 3.16 µM and 2.74 µM
[14]
  GI50: 0.14 µM and 0.0691 µM and 0.0173 µM
  TGI: 0.381 µM and 0.278 µM and 0.0882 µM
[15]
  TGI: 2.2 µM and 1.2 µM and 1.54 µM
[16]
  GI50: 0.163 µM and 0.297 µM and 0.449 µM
  TGI: 1.93 µM and 2.53 µM and 2.28 µM
[17]
  TGI: 54.2 µM
[18]
  TGI: 2.41 µM and 2.22 µM and 1.71 µM
[19]
  TGI: 1.83 µM and 0.999 µM and 0.897 µM
[20]
  GI50: 0.296 µM and 0.199 µM and 0.124 µM
  TGI: 1.23 µM and 1.28 µM and 0.926 µM
[21]
  TGI: 2.72 µM and 2.99 µM and 2.41 µM
[22]
  TGI: 2.06 µM and 1.96 µM and 1.83 µM
[23]
  TGI: 2.17 µM and 2.63 µM and 2.02 µM
[24]
  GI50: 0.571 µM and 0.306 µM and 0.144 µM
  TGI: 1.85 µM and 1.38 µM and 1.15 µM
[25]
  GI50: 0.274 µM and 0.11 µM and 0.136 µM
  TGI: 1.91 µM and 2.17 µM and 1.99 µM
[26]
  GI50: 1.76 µM and 0.425 µM and 0.975 µM
  TGI: 6.33 µM and 3.15 µM and 4.26 µM
[27]
  TGI: 2.71 µM and 2.37 µM and 2.29 µM
[28]
  TGI: 2.48 µM and 1.65 µM and 1.2 µM
[29]
  GI50: 0.0833 µM and 0.0383 µM and 0.0339 µM
  TGI: 0.292 µM and 0.198 µM and 0.176 µM
[30]
  TGI: 8.82 µM and 7.74 µM and 7.8 µM
[31]
  GI50: 0.117 µM and 0.275 µM and 0.146 µM
  TGI: 1.55 µM and 1.58 µM and 1.94 µM
[32]
  GI50: 0.264 µM and 0.0353 µM and 0.0939 µM
  TGI: 1.63 µM and 1.16 µM and 1.28 µM
[33]
  TGI: 4.74 µM and 5.68 µM and 5.6 µM
[34]
  TGI: 3.15 µM and 3.02 µM and 3.73 µM
[35]
  TGI: 3.78 µM and 5.62 µM and 6.49 µM
[36]
  TGI: 4.45 µM and 3.44 µM and 4.33 µM
[37]
  TGI: 1.99 µM and 1.7 µM and 1.53 µM
[38]
  GI50: 1.09 µM and 0.351 µM and 0.36 µM
  TGI: 9.4 µM and 4.92 µM and 4.59 µM
[39]
  GI50: 0.27 µM and 0.285 µM and 0.122 µM
  TGI: 1.77 µM and 1.72 µM and 1.02 µM
[40]
  TGI: 5.14 µM and 4.28 µM and 3.03 µM
[41]
  TGI: 8.56 µM and 4.92 µM and 5.23 µM
[42]
  GI50: 0.253 µM and 0.447 µM and 0.186 µM
  TGI: 1.95 µM and 3.08 µM and 2.64 µM
[43]
  GI50: 0.809 µM and 0.402 µM and 0.355 µM
  TGI: 2.57 µM and 1.36 µM and 1.38 µM
[44]
  GI50: 1.39 µM and 0.639 µM and 0.575 µM
  TGI: 3 µM and 2.02 µM and 2.88 µM
[45]
  TGI: 22.4 µM and 22.8 µM and 14.5 µM
[46]
  TGI: 2.01 µM and 1.56 µM and 1.7 µM
[47]
  TGI: 4.33 µM and 3.79 µM and 3.86 µM
[48]
  GI50: 0.675 µM and 0.249 µM and 0.255 µM
  TGI: 2.97 µM and 2.33 µM and 2.58 µM
[49]
  TGI: 6.34 µM and 6.43 µM and 5.58 µM
[50]
  GI50: 2.01 µM and 1.16 µM and 0.905 µM
  TGI: 14.5 µM and 14.3 µM and 10 µM
[51]
  GI50: 0.398 µM and 0.188 µM and 0.123 µM
  TGI: 1.75 µM and 0.958 µM and 0.754 µM
[52]
  GI50: 0.737 µM and 0.304 µM and 0.238 µM
  TGI: 3.14 µM and 2.45 µM and 2.33 µM
[53]
  GI50: 1.34 µM and 0.381 µM and 0.779 µM
  TGI: 3.22 µM
[54]
  GI50: 2.8 µM and 1.42 µM and 1.21 µM
  TGI: 14.7 µM and 8.94 µM and 5.88 µM
[55]
  TGI: 3.1 µM and 2.73 µM and 2.78 µM
[56]
  GI50: 1.69 µM and 0.825 µM and 1.07 µM
  TGI: 4.14 µM and 3.08 µM and 2.43 µM
[57]
  GI50: 0.532 µM and 0.309 µM and 0.244 µM
  TGI: 2.11 µM and 1.56 µM and 1.5 µM
[58]
  TGI: 15.3 µM and 10.8 µM and 10.9 µM
